47 molecules from PubChem BioAssay (NCI) can be followed below.

Where “and” joins values, the source holds several entries; their conditions need not be identical. Equal entries are not always repeated.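 Cells were grown in 96-well plates and exposed to each compound for 48 hours at five concentrations; endpoints were interpolated linearly between bracketing concentrations, or set to the highest concentration if not reached. The concentration for 50% growth inhibition is given as GI50. TGI is the concentration that stops growth completely.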

For the assay, the system named is MDA-MB-468 breast. Put plainly: NCI tumour cell line growth inhibition, 48 h.

Consider `O=C(O)c1cn(C2CC2)c2cc(N3CCN(S(=O)(=O)c4ccc(Cl)c(Cl)c4)CC3)c(F)cc2c1=O`, for which the GI50 was 2240 nM and the TGI worked out at 6890 nM. In the same order, the values of `CCOC(=O)Nc1nc2c(F)c(F)c(F)cc2s1` are 53900 nM and over 100000 nM. The like results for `O=C1Nc2ccccc2C12CC(c1ccccc1)=NN2` (configuration not stated) were, in that order, 6960 nM and over 100000 nM. For `Cc1cc(N(CCCNc2ccnc3cc(Cl)ccc23)Cc2cccs2)nc(Cl)n1`, the GI50 is 853 nM and the TGI was determined as 5740 nM. The like results for `NC1=CC(=O)C(=O)c2cccnc21` were, in that order, 10600 nM and 22500 nM. As to `O=C(Cc1ccc(/C=C/C(=O)c2ncc[nH]2)cc1)Nc1ccc(Br)cc1`, the GI50 is 1420 nM and the TGI was found to be 4090 nM. In the same order, the values of `Cc1cc(C)cc(Nc2nccc(-c3c(-c4ccc(F)cc4)ncn3C3CCNCC3)n2)c1` are 1140 nM and 2760 nM. The like results for `O=C(Cc1ccccc1)Nc1nnc(CCSCCc2nnc(NC(=O)Cc3ccccc3)s2)s1` were, in that order, 36000 nM and over 100000 nM. In the same order, the values of `Nc1c(C(=O)Nc2cccc3ccccc23)sc2nc3c(cc12)CCCC3` are 327 nM and over 100000 nM. For the molecule `Cn1cc(-c2csc(-c3cn(CCN4CCOCC4)c4ccc(F)cc34)n2)c2cccnc21`, the GI50 was 2200 nM and the TGI is 8590 nM. Consider `COc1ccc(-c2nnc3n(C)c(=O)c4ccccc4n23)cc1O`, for which the GI50 was 1210 nM and the TGI is 14000 nM. In the same order, the values of `CC(=O)OC1CCC2(C)C(CCC3C2CCC2(C)C(C4=CC(=O)OC4)CCC32)C1` (configuration not stated) are 5260 nM and 44900 nM.

Take `Cc1ccc2c(n1)C(=O)C(Cl)=C(Nc1cccc(C(C)C)c1)C2=O`: the GI50 was 1200 nM and the TGI was 2610 nM.

As for `COc1cc2c3c(cc4c5c(ccc4c3c1OC)OCO5)N(CCN(C)C)C2=O`, the GI50 is 73.1 nM and the TGI worked out at 412 nM. Consider `Cc1cc[c-]cc1.Fc1c[c-]c(-c2ccccn2)c(F)c1.N#CCC[PH+](CCC#N)c1ccccc1.[Pt+2]`, for which the GI50 is 2880 nM and the TGI stood at 9110 nM.

Take `O=C1NC(=O)c2c1c1c3ccccc3ccc1c1[nH]c3ccc(Br)cc3c21`: the GI50 is 1560 nM and the TGI is 3990 nM. Consider `Oc1c(I)cc(I)cc1CNCCCN(Cc1ccccn1)Cc1ccccn1`, for which the GI50 is 1010 nM and the TGI was determined as 2340 nM. Regarding `c1ccc(-c2n(Cc3ccc4ccccc4n3)c3ccccc3[n+]2Cc2ccc3ccccc3n2)cc1`, the GI50 was 105 nM and the TGI worked out at 512 nM. In the same order, the values of `COCCNc1ccc2ncc(C#Cc3cncc(C(=O)Nc4ccc(CN5CCN(C)CC5)c(C(F)(F)F)c4)c3)n2n1` are 101 nM and 260 nM. The like results for `Cc1cc(-c2ccccc2)c(C)n1Cc1ccc(Cl)cc1` were, in that order, 1420 nM and 7540 nM. On to `c1ccc(Cn2cc3c(c2)-c2oncc2CC3)cc1`, for which the GI50 was 331 nM. For the molecule `CN1CCN(c2nc(-c3csc(-c4ccccc4)n3)cc3ccccc23)CC1`, the GI50 is 1740 nM and the TGI turned out to be 4010 nM. On to `O=C1OCC2=C1C(c1cccc(F)c1)c1cc3c(cc1N2CCO)OCCO3` (configuration not stated), for which the GI50 is 125 nM. For the molecule `COc1cc(C2c3cc4c(cc3C3OC(=O)C2C3CO)OCO4)cc(OC)c1OC` (configuration not stated), the GI50 was under 10 nM and the TGI was over 100000 nM.

Turning to `CC(C)(C)c1ccc(C(=O)N/N=C/c2ccc(O)cc2O)cc1`, the GI50 is 396 nM and the TGI worked out at 2240 nM. Turning to `CC(C)[C@@H](C(=O)O[C@@H]1/C=C/C(=O)O[C@@H](C)CCC/C=C/[C@@H]2C[C@H](O)C[C@H]21)[N+](C)(C)C`, the GI50 was over 100000 nM and the TGI is over 100000 nM.

In the case of `COc1cc(C(=O)/C=C/c2c(-c3ccc(F)cc3)nc3sccn23)cc(OC)c1OC`, the GI50 was 2810 nM and the TGI was determined as 13600 nM. The like results for `CCN(CC)c1ccc(/C=C/C(=O)c2cccc(NS(C)(=O)=O)c2)cc1` were, in that order, 3840 nM and over 100000 nM. The like results for `COc1ccc2c(c1)c(CC(=O)[Se]CCC#N)c(C)n2C(=O)c1ccc(Cl)cc1` were, in that order, 2500 nM and 6930 nM. The like results for `O=C(c1ccc(O)cc1)c1ccc(C(=O)c2ccc(O)cc2)cc1` were, in that order, 6500 nM and over 100000 nM. `COc1ccc(C(=O)Nc2ncc(Cc3ccc(F)cc3)s2)cc1`: the GI50 is 362 nM and the TGI was over 100000 nM.

`C=C(C)[C@@H]1CC[C@]2(COS(C)(=O)=O)CC[C@]3(C)[C@H](CC[C@@H]4[C@@]5(C)CCCNC(C)(C)[C@@H]5CC[C@]43C)[C@@H]12`: the GI50 was 1750 nM and the TGI came to 3230 nM. Consider `COc1cc(Nc2ncc3c(n2)-c2ccc(Cl)cc2C(c2c(F)cccc2OC)=NC3)ccc1C(=O)O`, for which the GI50 was 45.6 nM and the TGI was determined as 19900 nM.

As for `CC1=C[C@H]2c3c(c(O)c(O)c4oc5cc(O)cc(O)c5c(=O)c34)[C@H](c3cc(O)c(O)c4oc5cc(O)cc(O)c5c(=O)c34)[C@H]2C(C)(C)C1`, the GI50 was 2070 nM; the TGI is 5670 nM and 6250 nM.

In the case of `C=C(C=O)[C@@H]1CC[C@]2(C)[C@H](CC=C3[C@H]4[C@@H](C)[C@H](C)CC[C@]4(C(=O)OC)CC[C@]32C)[C@@]1(C)CCC#N`, the GI50 was 1600 nM and the TGI was found to be 3240 nM. On to `C[C@@H]1CN(Cc2ccc(/C=C/c3n[nH]c4ccc5nc(-c6cn[nH]c6C(F)(F)F)c6c(c5c34)CCCC6)cc2)C[C@H](C)O1`, for which the GI50 is 5890 nM and the TGI was 22200 nM. In the same order, the values of `COC(=O)[C@]12CC[C@@H](C)[C@H](C)[C@@H]1C1=CC[C@@H]3[C@@]4(C)C(c5ncon5)=C[C@@](C)(CO)C4=CC[C@@]3(C)[C@]1(C)CC2` are 1950 nM and 3800 nM.

Take `COc1ccc(N2CCN(CC(=O)N3CCN(c4nnc(-c5ccccc5)c(-c5ccccc5)n4)CC3)CC2)cc1`: the GI50 was 2440 nM and the TGI came out at 12800 nM. In the same order, the values of `NC(=O)Nc1ccc2ncnc(Nc3ccc(Cl)cc3)c2c1` are 1430 nM and 8280 nM. In the same order, the values of `O=C1C(N2CCN(c3ccccc3)CC2)=C(Cl)C(=O)c2ncccc21` are 1590 nM and 3160 nM.

In the case of `COc1ccc(/C=C/c2nc(N3CCOCC3)c3cc(F)c(F)cc3n2)cc1OC`, the GI50 was 748 nM and the TGI was determined as 8030 nM. In the same order, the values of `O=C1C2C(C(=O)[N]1[Hg][c]1ccccc1)C1(Cl)C(Cl)=C(Cl)C2(Cl)C1(Cl)Cl` (configuration not stated) are 233 nM and 728 nM.

Turning to `Cc1ccc(C(=O)Nc2ccc(CN3CCN(C)CC3)c(C(F)(F)F)c2)cc1C#Cc1cncc2ncccc12`, the GI50 is 1460 nM and the TGI is 18500 nM. The like results for `Cc1cc2nc3ccc(N=Nc4ccc(N(C)C)cc4)cc3n(-c3ccccc3)c-2cc1=N` were, in that order, 19.5 nM and 199 nM. In the same order, the values of `COC(=O)Nc1nc2c(OC)c(OC)c(OC)cc2[nH]1` are 14300 nM and over 77300 nM. The like results for `O=C1CC(c2ccccc2)Cc2nc3ccc(Cl)cc3cc21` (configuration not stated) were, in that order, 2860 nM and over 26100 nM. Regarding `Clc1ccccc1-c1nc2ccccc2[nH]1`, the GI50 is 37000 nM and the TGI was over 100000 nM.
